Laboratory results taken from publication PMC9945734 (BMC Medicine, 2023).
Where “and” joins values, the source holds several entries; their conditions need not be identical. Equal values may be shown once.

System: PC-3-KQ and PC-3-KR cells
Assay: RNA-sequencing and differential gene expression
Assay type: cell-based, human
Design: CEP19 tpm_KQ_NTZ / CCNA1 tpm_KQ_NTZ / BTN3A3 tpm_KQ_NTZ / CAPSL tpm_KQ_NTZ / CELF3 tpm_KQ_NTZ / C5orf63 tpm_KQ_NTZ / tpm MSMP / tpm MYH7B / tpm CACNG8 / CNTNAP3B tpm_KQ_NTZ / IL21R tpm_KQ_NTZ / CYP8B1 tpm_KQ_NTZ / C2orf78 tpm_KQ_NTZ / CALB1 tpm_KQ_NTZ / COL4A3 tpm_KQ_NTZ / CFB tpm_KQ_NTZ / PFKFB1 tpm_KQ_NTZ / BTBD11 tpm_KQ_NTZ: scale not given here
Conditions: PC-3-KQ cells with NTZ, RNA-Seq, listed as NTZ

Which results are given for `CC(=O)Oc1ccccc1C(=O)Nc1ncc([N+](=O)[O-])s1` [Nitazoxanide]?
NT5E tpm_KQ_NTZ (replicates 1-3): -0.3117 and -0.2802 and -0.3345; NTF4 tpm_KQ_NTZ (replicates 1-3): -0.8704 and -0.4013 and -0.4312; PADI3 tpm_KQ_NTZ (replicates 1-3): -0.6957 and -0.9817 and -0.9686; PCDH18 tpm_KQ_NTZ (replicates 1-3): -1.061 and -0.1951 and -0.6677; PDGFA tpm_KQ_NTZ (replicates 1-3): 0.404 and 0.3967 and 0.4405; PDZK1 tpm_KQ_NTZ (replicates 1-3): -0.2414 and 0.3327 and -0.5574; PEG10 tpm_KQ_NTZ (replicates 1-3): -0.4908 and -0.6617 and -1.075; PFKFB1 tpm_KQ_NTZ (replicates 1-3): 0.1063 and -0.5815 and -0.9802; PGAM4 tpm_KQ_NTZ (replicates 1-3): -1.18 and 0.2721 and 0.1017; PHACTR3 tpm_KQ_NTZ (replicates 1-3): -0.9821 and -1.045 and -0.9733; PHOSPHO2 tpm_KQ_NTZ (replicates 1-3): -0.6941 and -0.4899 and -0.4437; PIANP tpm_KQ_NTZ (replicates 1-3): -0.9238 and -0.4554 and -0.5206; PITPNM3 tpm_KQ_NTZ (replicates 1-3): 0.8488 and 0.3478 and 1.199; PKIA tpm_KQ_NTZ (replicates 1-3): -0.2506 and -0.236 and -0.2863; PRKAR1B tpm_KQ_NTZ (replicates 1-3): 0.4324 and 0.4514 and 0.7549; PRKDC tpm_KQ_NTZ (replicates 1-3): 0.0232 and -0.08402 and -0.5624; PROS1 tpm_KQ_NTZ (replicates 1-3): 0.5403 and 0.6849 and 0.6327; PRR16 tpm_KQ_NTZ (replicates 1-3): -0.9713 and 0.1931 and -0.1646; PRR29 tpm_KQ_NTZ (replicates 1-3): -0.06306 and -0.3085 and -0.2669; PTPRR tpm_KQ_NTZ (replicates 1-3): 0.6595 and 1.295 and 0.9528; RBL1 tpm_KQ_NTZ (replicates 1-3): -0.1965 and -0.4796 and -0.579; RLN1 tpm_KQ_NTZ (replicates 1-3): -0.3286 and -1.073 and -1.143; RMDN2 tpm_KQ_NTZ (replicates 1-3): 0.2344 and 0.5874 and -0.2937; RND1 tpm_KQ_NTZ (replicates 1-3): 0.2005 and 0.3255 and 0.6944; S100A6 tpm_KQ_NTZ (replicates 1-3): -0.1375 and -0.00541 and 0.1164; SCG2 tpm_KQ_NTZ (replicates 1-3): 0.5158 and -0.04635 and -1.114; SDCBP2 tpm_KQ_NTZ (replicates 1-3): 0.1173 and 0.1996 and 0.2731; SERINC5 tpm_KQ_NTZ (replicates 1-3): 0.7977 and 0.7386 and 0.3271; SERPINA3 tpm_KQ_NTZ (replicates 1-3): 0.1383 and 0.1648 and 0.1316; SERPINB4 tpm_KQ_NTZ (replicates 1-3): -0.3324 and -0.2205 and -0.9332; SERPIND1 tpm_KQ_NTZ (replicates 1-3): -1.101 and -0.7105 and -1.316; SGK1 tpm_KQ_NTZ (replicates 1-3): -0.7129 and -0.3809 and -0.4182; SHISA3 tpm_KQ_NTZ (replicates 1-3): -0.1615 and -0.01424 and -0.03964; SLC1A1 tpm_KQ_NTZ (replicates 1-3): 0.007137 and 0.6447 and 0.4297; SLC26A9 tpm_KQ_NTZ (replicates 1-3): -0.2744 and 0.2725 and -0.927; SLC41A2 tpm_KQ_NTZ (replicates 1-3): 0.4534 and 0.4303 and 0.4488; SLC44A4 tpm_KQ_NTZ (replicates 1-3): 0.5521 and 0.8689 and 0.6934; SLC45A2 tpm_KQ_NTZ (replicates 1-3): 0.257 and 0.07385 and 0.3908; SLITRK5 tpm_KQ_NTZ (replicates 1-3): 0.1465 and 0.3195 and -0.4377; SMCO4 tpm_KQ_NTZ (replicates 1-3): 0.1432 and -0.08242 and 0.08549; SPOCK2 tpm_KQ_NTZ (replicates 1-3): 0.7174 and 0.4246 and 1.38; STK32A tpm_KQ_NTZ (replicates 1-3): -0.2617 and 0.04669 and 0.4294; SYN3 tpm_KQ_NTZ (replicates 1-3): 0.4729 and 0.3702 and 0.1862; TENM4 tpm_KQ_NTZ (replicates 1-3): 0.2992 and -0.3092 and -0.102; TIMM8A tpm_KQ_NTZ (replicates 1-3): -0.8837 and -0.8279 and -0.9653; TJP3 tpm_KQ_NTZ (replicates 1-3): 0.01147 and 0.1369 and 0.1215; TMEM140 tpm_KQ_NTZ (replicates 1-3): 0.2484 and 0.4158 and -0.0465; TMEM269 tpm_KQ_NTZ (replicates 1-3): 0.406 and 0.06998 and -0.4941; TMOD1 tpm_KQ_NTZ (replicates 1-3): 1.342 and 1.235 and 0.499; TMPRSS2 tpm_KQ_NTZ (replicates 1-3): 0.007165 (2×) and 0.0842; TNFAIP8L2-SCNM1 tpm_KQ_NTZ (replicates 1-3): -0.5467 and -1.562 and 0.4492; TNFRSF11B tpm_KQ_NTZ (replicates 1-3): -0.9649 and -1.078 and -1.224; TSPAN18 tpm_KQ_NTZ (replicates 1-3): 0.09114 and -0.09342 and 0.05473; TTC9 tpm_KQ_NTZ (replicates 1-3): 0.2094 and 0.2356 and 0.6409; TTC30A tpm_KQ_NTZ (replicates 1-3): -0.04558 and -0.08793 and -0.6072; TTC30B tpm_KQ_NTZ (replicates 1-3): -0.2207 and -0.5797 and -0.3178; UST tpm_KQ_NTZ (replicates 1-3): 0.2599 and 0.1194 and -0.01732; WHRN tpm_KQ_NTZ (replicates 1-3): 0.9053 and 0.8473 and 0.7758; WNT4 tpm_KQ_NTZ (replicates 1-3): 0.9814 and 1.222 and 1.387; WNT9A tpm_KQ_NTZ (replicates 1-3): 0.12 and -0.05504 and -0.01608; ZFPM2 tpm_KQ_NTZ (replicates 1-3): -0.1773 and -0.1147 and -0.2406; ZNF596 tpm_KQ_NTZ (replicates 1-3): -1.141 and -0.2632 and -0.6635; tpm ABAT (replicates NTZ1-3): 1.268 and 0.9682 and 0.237; tpm ADIRF (replicates NTZ1-3): -0.4477 and -0.5226 and -0.3352; tpm ANKRD63 (replicates NTZ1-3): 0.1535 and -0.6652 and 0.3857; tpm ANXA8 (replicates NTZ1-3): 0.9428 and 0.3454 and -1.083; tpm ANXA8L1 (replicates NTZ1-3): -0.298 and -0.4234 and -0.7464; tpm ARG2 (replicates NTZ1-3): 1.137 and 1.333 and 1.316; tpm ATP2A3 (replicates NTZ1-3): 0.8036 (2×) and -0.2131; tpm C11orf65 (replicates NTZ1-3): -1.057 and -0.2742 and -0.729; tpm CACNG8 (replicates NTZ1-3): -0.5252 and -0.3048 and -0.9129; tpm CAPN12 (replicates NTZ1-3): 0.129 and 0.1138 (2×); tpm CD14 (replicates NTZ1-3): -1.105 and -0.7008; tpm CGB5 (replicates NTZ1-3): 0.9167 and 0.2487 and 0.1354; tpm CHPF2 (replicates NTZ1-3): 1.06 and 0.6508 and 0.6663; tpm COL4A4 (replicates NTZ1-3): 0.03123 and -0.5371 and -0.2214; tpm COL4A6 (replicates NTZ1-3): -0.1711 and -0.6593 and -0.6324; tpm CXCL5 (replicates NTZ1-3): -0.4877 and -0.4195 and -0.4771; tpm CYP1B1 (replicates NTZ1-3): 0.6593 and 0.4159 and 0.0748; tpm CYP2E1 (replicates NTZ1-3): 0.3931 and 0.8042 and 0.2474
